The record followed here is US20250296938A1, “Compounds that Interact with the Ras Superfamily for the Treatment of Cancers, Inflammatory Diseases, Rasopathies, and Fibrotic Disease” (SHY Therapeutics, LLC, priority 2018, published 2025).

Where two headings read alike, the source gives them in different places.

What all share (test): Ras GTP binding domain inhibition assay (Cy3-GTP/Cy5-GTP competition)
For assay [1], the target named is Rac-1 (Homo sapiens, UniProt P63000). An outline of the steps: (§1)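 Compounds tested at 20 μM or in serial dilution for IC50 against nickel-captured His-tagged GTPase, 3 hours at room temperature, with or without His-Sos GEF added for last hour. Fluorescent GTP then added at 100 nM for 45 minutes; wells washed, bound label measured by fluorescence.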
Assay [2] addresses T1, KRas G12D mutant (Homo sapiens, UniProt P01116, G12D).
T1 construct: fused on or other part: His tag, used for capture on nickel-coated plates
As to conditions: at 20 μM. An outline of the steps: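 His-tagged Ras proteins were captured on nickel-coated wells in Buffer-I (25 mM Tris-HCl pH 7.4, 27 mM KCl, 137 mM NaCl, 1 mM MgCl2, 1 mM DTT) or Buffer-II (50 mM Tris-HCl pH 7.0). Compounds (20 μM or serial dilution, 1% DMSO) were incubated 3 h at RT, ±Sos(556-1049) in the final hour. Bound Cy3-/Cy5-GTP (100 nM, 45 min) was read after washing.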

For assay [3], the target named is Rho-A (Homo sapiens, UniProt P61586). An outline of the steps:
as §1

The mark [4] stands for this setting: with SOS, read-out: Rac-1 + SOS: % inh.
[5] abbreviates: without SOS, read-out: Rac-1: % inh.
[6] abbreviates: with SOS, read-out: KRas G12D mutant + SOS: % inh.
[7] abbreviates: without SOS, read-out: KRas G12D mutant: % inh.
Where [8] appears, read: with SOS, read-out: Rho-A + SOS: % inh.
The mark [9] stands for this setting: without SOS, read-out: Rho-A: % inh.

As for `Cn1ccnc1-c1nc(O)c(O)c(C(=O)NC2CCC2)n1` [drawing 960], the inhibition at 20 µM in assay [1] (setting [4]) is 51 to 75%; in assay [1] (setting [5]) it was 76 to 100%; in assay [2] (setting [6]) it was 26 to 50%; in assay [2] (setting [7]), 51 to 75%; in assay [3] (setting [8]), 51 to 75%; in assay [3] (setting [9]), 26 to 50%.

In the case of `COc1c(F)cccc1-c1sc2nc(-c3nccn3C)nc(NC3CCC(OC)C3)c2c1-c1ccccc1` (stereo not drawn) [drawing 1021], the inhibition at 20 µM in assay [1] (setting [4]) is 51 to 75%; in assay [1] (setting [5]), 26 to 50%; in assay [2] (setting [6]), 1 to 25%; in assay [2] (setting [7]), 1 to 25%; in assay [3] (setting [8]), 26 to 50%; in assay [3] (setting [9]), 26 to 50%.

For `COCCNC(=O)c1sc2nc(-c3nccn3C)nc(N[C@H]3C[C@@H](OC)C3)c2c1-c1ccccc1` [drawing 1056], the inhibition at 20 µM in assay [1] (setting [4]) was 76 to 100%; in assay [1] (setting [5]), 51 to 75%; in assay [2] (setting [6]), 51 to 75%; in assay [2] (setting [7]), 51 to 75%; in assay [3] (setting [8]) it was 51 to 75%; in assay [3] (setting [9]), 51 to 75%.

`Cc1cc(Cn2ccnc2-c2nc(O)c3scc(-c4ccccn4)c3n2)on1` [drawing 981]: the inhibition at 20 µM in assay [1] (setting [4]) fell in the range of 51 to 75%; in assay [1] (setting [5]), 51 to 75%; in assay [2] (setting [6]), 26 to 50%; in assay [2] (setting [7]), 51 to 75%; in assay [3] (setting [8]), 26 to 50%; in assay [3] (setting [9]) it was 1 to 25%.

`COCCNc1nc(-c2nccn2C)nc2sc(-c3cccc(OC)c3Cl)c(-c3ccc(OC)cc3)c12` [drawing 1009]: the inhibition at 20 µM in assay [1] (setting [4]) was in the range of 51 to 75%; in assay [1] (setting [5]), 26 to 50%; in assay [2] (setting [6]) it was 51 to 75%; in assay [2] (setting [7]), 1 to 25%; in assay [3] (setting [8]), 26 to 50%; in assay [3] (setting [9]), 26 to 50%.

Consider `COc1ncccc1-c1sc2nc(-c3nccn3C)nc(N3CCC(OC)C3)c2c1-c1ccccc1` (stereo not drawn) [drawing 978], for which the inhibition at 20 µM in assay [1] (setting [4]) lay in the range of 51 to 75%; in assay [1] (setting [5]), 26 to 50%; in assay [2] (setting [6]) it was 51 to 75%; in assay [2] (setting [7]) it was 51 to 75%; in assay [3] (setting [8]), 51 to 75%; in assay [3] (setting [9]), 51 to 75%.

As for `Oc1nc(-c2ncc3n2CCCC3)nc2c(-c3ccccn3)csc12` [drawing 968], the inhibition at 20 µM was in the range of 76 to 100% in assay [1] (setting [4]); 51 to 75% in assay [1] (setting [5]); 51 to 75% in assay [2] (setting [6]); 51 to 75% in assay [2] (setting [7]); 76 to 100% in assay [3] (setting [8]); 26 to 50% in assay [3] (setting [9]).

Consider `O=C(c1nc(-c2ccccn2)nc(O)c1O)N1CCCC1` [drawing 966], for which the inhibition at 20 µM in assay [1] (setting [4]) was in the range of 26 to 50%; in assay [1] (setting [5]) it was 26 to 50%; in assay [2] (setting [6]), 1 to 25%; in assay [2] (setting [7]), 51 to 75%; in assay [3] (setting [8]), 51 to 75%; in assay [3] (setting [9]), 76 to 100%.

Turning to `COc1cccc(-c2csc3c(O)nc(-c4nccn4C)nc23)c1Cl` [drawing 1013], the inhibition at 20 µM in assay [1] (setting [4]) was 26 to 50%; in assay [1] (setting [5]), 1 to 25%; in assay [2] (setting [6]) it was 1 to 25%; in assay [2] (setting [7]), 1 to 25%; in assay [3] (setting [8]), 1 to 25%; in assay [3] (setting [9]), 1 to 25%.

Consider `COC1CCN(c2nc(-c3nccn3C)nc3sc(-c4cnn(C)c4)c(-c4ccccc4)c23)C1` (stereo not drawn) [drawing 970], for which the inhibition at 20 µM in assay [1] (setting [4]) is 0%; in assay [1] (setting [5]), 0%; in assay [2] (setting [6]), 76 to 100%; in assay [2] (setting [7]), 26 to 50%; in assay [3] (setting [8]), 76 to 100%; in assay [3] (setting [9]) it was 26 to 50%.

Regarding `COC1CCN(c2nc(-c3nccn3C)nc3sc(-c4ccccc4CO)c(-c4ccccc4)c23)C1` (stereo not drawn) [drawing 952], the inhibition at 20 µM was 0% in assay [1] (setting [4]); 0% in assay [1] (setting [5]); 51 to 75% in assay [2] (setting [6]); 51 to 75% in assay [2] (setting [7]); 26 to 50% in assay [3] (setting [8]); 0% in assay [3] (setting [9]).

As to `CC(C)NC(=O)c1nc(-c2nccn2C)nc(O)c1O` [drawing 965], the inhibition at 20 µM fell in the range of 51 to 75% in assay [1] (setting [4]); 51 to 75% in assay [1] (setting [5]); 26 to 50% in assay [2] (setting [6]); 51 to 75% in assay [2] (setting [7]); 76 to 100% in assay [3] (setting [8]); 51 to 75% in assay [3] (setting [9]).

As for `COC1CCN(c2nc(-c3nccn3C)nn3cc(-c4ccccc4)c(-c4ccccc4)c23)C1` (stereo not drawn) [drawing 931], the inhibition at 20 µM in assay [1] (setting [4]) lay within 51 to 75%; in assay [1] (setting [5]), 26 to 50%; in assay [2] (setting [6]), 1 to 25%; in assay [2] (setting [7]), 26 to 50%; in assay [3] (setting [8]), 26 to 50%; in assay [3] (setting [9]), 51 to 75%.

On to `Cc1c(-c2ccn(C)n2)sc2nc(-c3nccn3C)nc(NCCCS(C)(=O)=O)c12` [drawing 1051], for which the inhibition at 20 µM was 51 to 75% in assay [1] (setting [4]); 76 to 100% in assay [1] (setting [5]); 76 to 100% in assay [2] (setting [6]); 76 to 100% in assay [2] (setting [7]); 51 to 75% in assay [3] (setting [8]); 51 to 75% in assay [3] (setting [9]).

With `Cn1ccc(-c2sc3nc(-c4nccn4C)nc(NC4CCOCC4)c3c2-c2ccccc2)n1` [drawing 997], the inhibition at 20 µM in assay [1] (setting [4]) was 26 to 50%; in assay [1] (setting [5]), 26 to 50%; in assay [2] (setting [6]), 1 to 25%; in assay [2] (setting [7]) it was 1 to 25%; in assay [3] (setting [8]), 51 to 75%; in assay [3] (setting [9]), 0%.

For `COC1CCN(C(=O)c2sc3nc(-c4nccn4C)nc(N[C@H]4C[C@@H](OC)C4)c3c2-c2ccccc2)C1` (stereo partly drawn) [drawing 1058], the inhibition at 20 µM in assay [1] (setting [4]) lay within 51 to 75%; in assay [1] (setting [5]), 76 to 100%; in assay [2] (setting [6]) it was 51 to 75%; in assay [2] (setting [7]), 51 to 75%; in assay [3] (setting [8]), 76 to 100%; in assay [3] (setting [9]), 26 to 50%.

Consider `CO[C@H]1CC[C@@H](Nc2nc(-c3nccn3C)nc3sc(C(=O)N4CCOCC4)c(-c4ccccc4)c23)C1` [drawing 1062], for which the inhibition at 20 µM was 76 to 100% in assay [1] (setting [4]); 76 to 100% in assay [1] (setting [5]); 51 to 75% in assay [2] (setting [6]); 76 to 100% in assay [2] (setting [7]); 76 to 100% in assay [3] (setting [8]); 76 to 100% in assay [3] (setting [9]).

Take `COc1nc(-c2ccccn2)nc2c(-c3ccccn3)csc12` [drawing 1048]: the inhibition at 20 µM in assay [1] (setting [4]) is 26 to 50%; in assay [1] (setting [5]), 26 to 50%; in assay [2] (setting [6]), 1 to 25%; in assay [2] (setting [7]), 26 to 50%; in assay [3] (setting [8]), 26 to 50%; in assay [3] (setting [9]) it was 26 to 50%.

As for `COc1cccc(-c2sc3nc(-c4nccn4C)nc(N4CCC(OC)C4)c3c2-c2cscn2)c1` (stereo not drawn) [drawing 1002], the inhibition at 20 µM in assay [1] (setting [4]) is 1 to 25%; in assay [1] (setting [5]), 0%; in assay [2] (setting [6]), 51 to 75%; in assay [2] (setting [7]), 1 to 25%; in assay [3] (setting [8]), 1 to 25%; in assay [3] (setting [9]), 0%.

Take `COCC(C)Nc1nc(-c2nccn2C)nc2sc(-c3ccn(C)n3)c(-c3ccccc3)c12` (stereo not drawn) [drawing 999]: the inhibition at 20 µM in assay [1] (setting [4]) was 1 to 25%; in assay [1] (setting [5]), 1 to 25%; in assay [2] (setting [6]), 26 to 50%; in assay [2] (setting [7]), 1 to 25%; in assay [3] (setting [8]), 26 to 50%; in assay [3] (setting [9]), 0%.
